≈ marks a conversion by molar mass, not a printed value.
Legend:
Type in all cases: functional
Aspergillus niger [1] = assay: Antifungal activity against Aspergillus niger isolate CM-3641 obtained from respiratory tract infection of patient after 48 hrs by EUCAST broth dilution method; conditions: isolate CM-3641, 48 h
Aspergillus niger [2] = assay: Antifungal activity against Aspergillus niger isolate CM-3672 obtained from cutaneous layer of patient after 48 hrs by EUCAST broth dilution method; conditions: isolate CM-3672, 48 h
Aspergillus niger [3] = assay: Antifungal activity against Aspergillus niger isolate CM-4004 obtained from after 48 hrs by EUCAST broth dilution method; conditions: isolate CM-4004, 48 h
Aspergillus niger [4] = assay: Antifungal activity against Aspergillus niger isolate CM-4213 obtained from respiratory tract infection of patient after 48 hrs by EUCAST broth dilution method; conditions: isolate CM-4213, 48 h
Aspergillus tubingensis [5] = assay: Antifungal activity against Aspergillus tubingensis isolate CM-4264 obtained from blood culture after 48 hrs by EUCAST broth dilution method; conditions: isolate CM-4264, 48 h
Aspergillus tubingensis [6] = assay: Antifungal activity against Aspergillus tubingensis isolate CM-4296 obtained from respiratory tract infection of patient after 48 hrs by EUCAST broth dilution method; conditions: isolate CM-4296, 48 h
Aspergillus niger [7] = assay: Antifungal activity against Aspergillus niger isolate CM-4316 obtained from respiratory tract infection of patient after 48 hrs by EUCAST broth dilution method; conditions: isolate CM-4316, 48 h
Aspergillus tubingensis [8] = assay: Antifungal activity against Aspergillus tubingensis isolate CM-5094 obtained from respiratory tract infection of patient after 48 hrs by EUCAST broth dilution method; conditions: isolate CM-5094, 48 h
Aspergillus niger [9] = assay: Antifungal activity against Aspergillus niger isolate CM-5095 obtained from respiratory tract infection of patient after 48 hrs by EUCAST broth dilution method; conditions: isolate CM-5095, 48 h
Aspergillus tubingensis [10] = assay: Antifungal activity against Aspergillus tubingensis isolate CM-3123 obtained from respiratory tract infection of patient after 48 hrs by EUCAST broth dilution method; conditions: isolate CM-3123, 48 h
Aspergillus tubingensis [11] = assay: Antifungal activity against Aspergillus tubingensis isolate CM-3810 obtained from respiratory tract infection of patient after 48 hrs by EUCAST broth dilution method; conditions: isolate CM-3810, 48 h
Aspergillus tubingensis [12] = assay: Antifungal activity against Aspergillus tubingensis isolate CM-4003 after 48 hrs by EUCAST broth dilution method; conditions: isolate CM-4003, 48 h
Aspergillus tubingensis [13] = assay: Antifungal activity against Aspergillus tubingensis isolate CM-4005 after 48 hrs by EUCAST broth dilution method; conditions: isolate CM-4005, 48 h
Aspergillus tubingensis [14] = assay: Antifungal activity against Aspergillus tubingensis isolate CM-4688 obtained from respiratory tract infection of patient after 48 hrs by EUCAST broth dilution method; conditions: isolate CM-4688, 48 h
Aspergillus foetidus [15] = assay: Antifungal activity against Aspergillus foetidus isolate CM-5264 obtained from respiratory tract infection of patient after 48 hrs by EUCAST broth dilution method; conditions: isolate CM-5264, 48 h
Aspergillus tubingensis [16] = assay: Antifungal activity against Aspergillus tubingensis isolate CM-3125 obtained from respiratory tract infection of patient after 48 hrs by EUCAST broth dilution method; conditions: isolate CM-3125, 48 h
Aspergillus tubingensis [17] = assay: Antifungal activity against Aspergillus tubingensis isolate CM-3177 obtained from respiratory tract infection of patient after 48 hrs by EUCAST broth dilution method; conditions: isolate CM-3177, 48 h
Aspergillus niger [18] = assay: Antifungal activity against Aspergillus niger isolate CM-3551 obtained from respiratory tract infection of patient after 48 hrs by EUCAST broth dilution method; conditions: isolate CM-3551, 48 h
Aspergillus tubingensis [19] = assay: Antifungal activity against Aspergillus tubingensis isolate CM-3654 obtained from blood culture after 48 hrs by EUCAST broth dilution method; conditions: isolate CM-3654, 48 h
Aspergillus tubingensis [20] = assay: Antifungal activity against Aspergillus tubingensis isolate CM-4000 after 48 hrs by EUCAST broth dilution method; conditions: isolate CM-4000, 48 h
Aspergillus tubingensis [21] = assay: Antifungal activity against Aspergillus tubingensis isolate CM-4001 after 48 hrs by EUCAST broth dilution method; conditions: isolate CM-4001, 48 h
Aspergillus foetidus [22] = assay: Antifungal activity against Aspergillus foetidus isolate CM-4002 after 48 hrs by EUCAST broth dilution method; conditions: isolate CM-4002, 48 h
Aspergillus niger [23] = assay: Antifungal activity against Aspergillus niger isolate CM-4262 after 48 hrs by EUCAST broth dilution method Ophthalmic; conditions: isolate CM-4262, 48 h
Aspergillus tubingensis [24] = assay: Antifungal activity against Aspergillus tubingensis isolate CM-4352 obtained from respiratory tract infection of patient after 48 hrs by EUCAST broth dilution method; conditions: isolate CM-4352, 48 h
Aspergillus tubingensis [25] = assay: Antifungal activity against Aspergillus tubingensis isolate CM-4897 obtained from blood culture after 48 hrs by EUCAST broth dilution method; conditions: isolate CM-4897, 48 h
Aspergillus tubingensis [26] = assay: Antifungal activity against Aspergillus tubingensis isolate CM-4899 obtained from respiratory tract infection of patient after 48 hrs by EUCAST broth dilution method; conditions: isolate CM-4899, 48 h
Aspergillus foetidus [27] = assay: Antifungal activity against Aspergillus foetidus isolate CM-4995 obtained from prosthesis after 48 hrs by EUCAST broth dilution method; conditions: isolate CM-4995, 48 h
Aspergillus niger [28] = assay: Antifungal activity against Aspergillus niger isolate CM-3236 obtained from respiratory tract infection of patient after 48 hrs by EUCAST broth dilution method; conditions: isolate CM-3236, 48 h
Aspergillus niger [29] = assay: Antifungal activity against Aspergillus niger isolate CM-3257 obtained from respiratory tract infection of patient after 48 hrs by EUCAST broth dilution method; conditions: isolate CM-3257, 48 h
Aspergillus niger [30] = assay: Antifungal activity against Aspergillus niger isolate CM-3506 obtained from respiratory tract infection of patient after 48 hrs by EUCAST broth dilution method; conditions: isolate CM-3506, 48 h
Aspergillus tubingensis [31] = assay: Antifungal activity against Aspergillus tubingensis isolate CM-3507 obtained from respiratory tract infection of patient after 48 hrs by EUCAST broth dilution method; conditions: isolate CM-3507, 48 h
Aspergillus tubingensis [32] = assay: Antifungal activity against Aspergillus tubingensis isolate CM-3585 after 48 hrs by EUCAST broth dilution method; conditions: isolate CM-3585, 48 h
Aspergillus niger [33] = assay: Antifungal activity against Aspergillus niger isolate CM-3586 obtained from catheter of patient after 48 hrs by EUCAST broth dilution method; conditions: isolate CM-3586, 48 h
Aspergillus niger [34] = assay: Antifungal activity against Aspergillus niger isolate CM-3636 obtained from respiratory tract infection of patient after 48 hrs by EUCAST broth dilution method; conditions: isolate CM-3636, 48 h

Row | SMILES | MIC (Aspergillus niger [1]) | MIC (Aspergillus niger [2]) | MIC (Aspergillus niger [3]) | MIC (Aspergillus niger [4]) | MIC (Aspergillus tubingensis [5]) | MIC (Aspergillus tubingensis [6]) | MIC (Aspergillus niger [7]) | MIC (Aspergillus tubingensis [8]) | MIC (Aspergillus niger [9]) | MIC (Aspergillus tubingensis [10]) | MIC (Aspergillus tubingensis [11]) | MIC (Aspergillus tubingensis [12]) | MIC (Aspergillus tubingensis [13]) | MIC (Aspergillus tubingensis [14]) | MIC (Aspergillus foetidus [15]) | MIC (Aspergillus tubingensis [16]) | MIC (Aspergillus tubingensis [17]) | MIC (Aspergillus niger [18]) | MIC (Aspergillus tubingensis [19]) | MIC (Aspergillus tubingensis [20]) | also measured
1 | CC[C@@H]([C@H](C)O)n1ncn(-c2ccc(N3CCN(c4ccc(OC[C@@H]5CO[C@@](Cn6cncn6)(c6ccc(F)cc6F)C5)cc4)CC3)cc2)c1=O [POSACONAZOLE] | 0.125 µg/mL (≈ 0.178 µM) | 0.19 µg/mL (≈ 0.271 µM) | 0.25 µg/mL (≈ 0.357 µM) | 0.03 µg/mL (≈ 0.0428 µM) | 0.12 µg/mL (≈ 0.171 µM) | 0.19 µg/mL (≈ 0.271 µM) | 0.125 µg/mL (≈ 0.178 µM) | 0.06 µg/mL (≈ 0.0856 µM) | 0.12 µg/mL (≈ 0.171 µM) | 0.25 µg/mL (≈ 0.357 µM) | 0.12 µg/mL (≈ 0.171 µM) | 0.25 µg/mL (≈ 0.357 µM) | 0.5 µg/mL (≈ 0.713 µM) | 0.25 µg/mL (≈ 0.357 µM) | 0.5 µg/mL (≈ 0.713 µM) | 0.12 µg/mL (≈ 0.171 µM) | 0.25 µg/mL (≈ 0.357 µM) | 0.12 µg/mL (≈ 0.171 µM) | 0.25 µg/mL (≈ 0.357 µM) | 0.25 µg/mL (≈ 0.357 µM) | MIC (Aspergillus tubingensis [21]): 0.25 µg/mL (≈ 0.357 µM); MIC (Aspergillus foetidus [22]): 0.12 µg/mL (≈ 0.171 µM); MIC (Aspergillus niger [23]): 0.25 µg/mL (≈ 0.357 µM); MIC (Aspergillus tubingensis [24]): 0.25 µg/mL (≈ 0.357 µM); MIC (Aspergillus tubingensis [25]): 0.25 µg/mL (≈ 0.357 µM); MIC (Aspergillus tubingensis [26]): 0.25 µg/mL (≈ 0.357 µM); MIC (Aspergillus foetidus [27]): 0.16 µg/mL (≈ 0.228 µM); MIC (Aspergillus niger [28]): 0.12 µg/mL (≈ 0.171 µM); MIC (Aspergillus niger [29]): 0.25 µg/mL (≈ 0.357 µM); MIC (Aspergillus niger [30]): 0.12 µg/mL (≈ 0.171 µM); MIC (Aspergillus tubingensis [31]): 0.15 µg/mL (≈ 0.214 µM); MIC (Aspergillus tubingensis [32]): 0.12 µg/mL (≈ 0.171 µM); MIC (Aspergillus niger [33]): 0.12 µg/mL (≈ 0.171 µM); MIC (Aspergillus niger [34]): 0.19 µg/mL (≈ 0.271 µM)
2 | C[C@@H](c1nc(-c2ccc(C#N)cc2)cs1)[C@](O)(Cn1cncn1)c1ccc(F)cc1F [RAVUCONAZOLE] | 1 µg/mL (≈ 2.29 µM) | 1.5 µg/mL (≈ 3.43 µM) | 1.67 µg/mL (≈ 3.82 µM) | 0.58 µg/mL (≈ 1.33 µM) | 1.5 µg/mL (≈ 3.43 µM) | 1.5 µg/mL (≈ 3.43 µM) | 1 µg/mL (≈ 2.29 µM) | 2 µg/mL (≈ 4.57 µM) | 1.5 µg/mL (≈ 3.43 µM) | 2.67 µg/mL (≈ 6.1 µM) | 2 µg/mL (≈ 4.57 µM) | 4 µg/mL (≈ 9.14 µM) | 4 µg/mL (≈ 9.14 µM) | 3.33 µg/mL (≈ 7.61 µM) | 8 µg/mL (≈ 18.3 µM) | 1.67 µg/mL (≈ 3.82 µM) | 3.33 µg/mL (≈ 7.61 µM) | 2 µg/mL (≈ 4.57 µM) | 2.5 µg/mL (≈ 5.71 µM) | 2 µg/mL (≈ 4.57 µM) | MIC (Aspergillus tubingensis [21]): 2.5 µg/mL (≈ 5.71 µM); MIC (Aspergillus foetidus [22]): 2.67 µg/mL (≈ 6.1 µM); MIC (Aspergillus niger [23]): 2 µg/mL (≈ 4.57 µM); MIC (Aspergillus tubingensis [24]): 2 µg/mL (≈ 4.57 µM); MIC (Aspergillus tubingensis [25]): 2 µg/mL (≈ 4.57 µM); MIC (Aspergillus tubingensis [26]): 2.67 µg/mL (≈ 6.1 µM); MIC (Aspergillus foetidus [27]): 2 µg/mL (≈ 4.57 µM); MIC (Aspergillus niger [28]): 1 µg/mL (≈ 2.29 µM); MIC (Aspergillus niger [29]): 1 µg/mL (≈ 2.29 µM); MIC (Aspergillus niger [30]): 1 µg/mL (≈ 2.29 µM); MIC (Aspergillus tubingensis [31]): 1.5 µg/mL (≈ 3.43 µM); MIC (Aspergillus tubingensis [32]): 1.67 µg/mL (≈ 3.82 µM); MIC (Aspergillus niger [33]): 2 µg/mL (≈ 4.57 µM); MIC (Aspergillus niger [34]): 1 µg/mL (≈ 2.29 µM)

From ChEMBL document CHEMBL1649226, “Species identification and antifungal susceptibility patterns of species belonging to Aspergillus section Nigri” (2009)
